In PubChem BioAssay (NCI):
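The concentration for 50% growth inhibition is given as GI50. At the TGI there is no net growth.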

Tests used:
Assay in all cases: NCI tumour cell line growth inhibition, 384-well format
[1] = system: SNB-75 CNS
[2] = system: PC-3 prostate
[3] = system: SK-MEL-5 melanoma
[4] = system: HCT-116 colon
[5] = system: MDA-MB-435 melanoma
[6] = system: OVCAR-3 ovarian
[7] = system: RPMI-8226 leukemia
[8] = system: T-47D breast
[9] = system: CAKI-1 renal
[10] = system: SR leukemia
[11] = system: HS 578T breast
[12] = system: MCF7 breast
[13] = system: NCI-H522 lung
[14] = system: NCI-H460 NSCLC
[15] = system: A498 renal
[16] = system: SK-MEL-28 melanoma
[17] = system: IGROV1 ovarian
[18] = system: 786-0 renal
[19] = system: OVCAR-5 ovarian
[20] = system: SF-539 CNS
[21] = system: HOP-92 NSCLC
[22] = system: A549 NSCLC
[23] = system: KM12 colon
[24] = system: BT-549 breast
[25] = system: OVCAR-4 ovarian
[26] = system: SK-MEL-2 melanoma
[27] = system: RXF 393 renal
[28] = system: SF-295 CNS
[29] = system: TK-10 renal
[30] = system: EKVX NSCLC
[31] = system: NCI-H226 lung
[32] = system: HT29 colon
[33] = system: MOLT-4 leukemia
[34] = system: NCI-H322M lung
[35] = system: SW-620 colon
[36] = system: HCT-15 colon
[37] = system: HOP-62 NSCLC
[38] = system: UACC-62 melanoma
[39] = system: MDA-MB-468 breast
[40] = system: SK-OV-3 ovarian
[41] = system: LOX IMVI melanoma
[42] = system: HL-60(TB) leukemia
[43] = system: MALME-3M melanoma
[44] = system: DU-145 prostate
[45] = system: NCI-H23 lung
[46] = system: HCC-2998 colon
[47] = system: SN12C renal
[48] = system: SF-268 CNS
[49] = system: K-562 leukemia
[50] = system: ACHN renal
[51] = system: OVCAR-8 ovarian
[52] = system: M14 melanoma
[53] = system: UACC-257 melanoma
[54] = system: SNB-19 CNS
[55] = system: UO-31 renal
[56] = system: U251 glioblastoma
[57] = system: NCI/ADR-RES ovarian
[58] = system: MDA-MB-231 breast
[59] = system: COLO 205 colon
[60] = system: CCRF-CEM leukemia

Cc1nc2c(-c3cnc(N)nc3)nc(N3CCOCC3)nc2n1C(C)C
GI50 [1]: 35.5 nM | TGI [1]: 0.22 µM | GI50 [2]: 52.8 nM | TGI [2]: > 100 µM | GI50 [3]: 87.8 nM | TGI [3]: 0.337 µM | GI50 [4]: 479 nM | TGI [4]: > 100 µM | GI50 [5]: 0.184 µM | TGI [5]: 0.845 µM | GI50 [6]: 107 nM | TGI [6]: 713 nM | GI50 [7]: 59.6 nM | TGI [7]: 0.252 µM | GI50 [8]: 0.0313 µM | TGI [8]: 0.166 µM | GI50 [9]: 75.1 nM | TGI [9]: 0.581 µM | GI50 [10]: 195 nM | TGI [10]: 619 nM | GI50 [11]: 66.1 nM | TGI [11]: 273 nM | GI50 [12]: 36 nM | TGI [12]: > 100 µM | GI50 [13]: 0.0922 µM | TGI [13]: 0.941 µM | GI50 [14]: 39 nM | TGI [14]: > 100 µM | GI50 [15]: 55.9 nM | TGI [15]: 0.322 µM | GI50 [16]: 0.153 µM | TGI [16]: 0.969 µM | GI50 [17]: 21.8 nM | TGI [17]: 0.133 µM | GI50 [18]: 246 nM | TGI [18]: 5.94 µM | GI50 [19]: 0.19 µM | TGI [19]: > 100 µM | GI50 [20]: 167 nM | TGI [20]: 1.12 µM | GI50 [21]: 67.5 nM | TGI [21]: 435 nM | GI50 [22]: 108 nM | TGI [22]: 3.6 µM | GI50 [23]: 270 nM | TGI [23]: > 100 µM | GI50 [24]: 95.3 nM | TGI [24]: 0.469 µM | GI50 [25]: 0.118 µM | TGI [25]: 0.803 µM | GI50 [26]: 566 nM | TGI [26]: 941 nM | GI50 [27]: 78.9 nM | TGI [27]: 379 nM | GI50 [28]: 79.1 nM | TGI [28]: 431 nM | GI50 [29]: 54.9 nM | TGI [29]: 0.465 µM | GI50 [30]: 0.0866 µM | TGI [30]: 0.38 µM | GI50 [31]: 122 nM | TGI [31]: 2.39 µM | GI50 [32]: 0.191 µM | TGI [32]: > 100 µM | GI50 [33]: 61.8 nM | TGI [33]: 344 nM | GI50 [34]: 0.125 µM | TGI [34]: 50.5 µM | GI50 [35]: 460 nM | TGI [35]: > 100 µM | GI50 [36]: 0.0761 µM | TGI [36]: > 100 µM | GI50 [37]: 158 nM | TGI [37]: 13 µM | GI50 [38]: 147 nM | TGI [38]: 847 nM | GI50 [39]: 65.9 nM | TGI [39]: 351 nM | GI50 [40]: 92.7 nM | TGI [40]: 430 nM | GI50 [41]: 232 nM | TGI [41]: 0.86 µM | GI50 [42]: 156 nM | TGI [42]: 1040 nM | GI50 [43]: 0.0443 µM | TGI [43]: 0.262 µM | GI50 [44]: 149 nM | TGI [44]: > 100 µM

O=C1NC(=O)C(c2cnc3ccccn23)=C1c1cn2c3c(cc(F)cc13)CN(C(=O)N1CCCCC1)CC2
GI50 [1]: < 10 nM | TGI [1]: 14.4 µM | GI50 [2]: 2170 nM | TGI [2]: 18.8 µM | GI50 [3]: 4080 nM | TGI [3]: 15.4 µM | GI50 [4]: 1120 nM | TGI [4]: 28.4 µM | GI50 [45]: 11 µM | TGI [45]: 25.3 µM | GI50 [5]: 14.8 µM | TGI [5]: 40.4 µM | GI50 [7]: 901 nM | TGI [7]: 20.7 µM | GI50 [46]: 128 nM | TGI [46]: 773 nM | GI50 [8]: 12.7 µM | TGI [8]: 28 µM | GI50 [47]: 10.7 µM | TGI [47]: 38.9 µM | GI50 [9]: 259 nM | TGI [9]: 51.4 µM | GI50 [11]: < 10 nM | GI50 [12]: < 10 nM | TGI [12]: 17.1 µM | GI50 [13]: 13.5 µM | TGI [13]: 26.7 µM | GI50 [14]: 701 nM | TGI [14]: 3.17 µM | GI50 [15]: 15.6 nM | TGI [15]: 13.2 µM | GI50 [16]: 15.2 µM | TGI [16]: 29.2 µM | GI50 [48]: 138 nM | TGI [48]: 491 nM | GI50 [17]: 2730 nM | TGI [17]: 22.2 µM | GI50 [18]: 77.9 nM | TGI [18]: 12.4 µM | GI50 [19]: 23 µM | TGI [19]: 55.3 µM | GI50 [49]: < 10 nM | TGI [49]: 19.1 µM | GI50 [50]: 743 nM | TGI [50]: 11.3 µM | GI50 [20]: < 10 nM | TGI [20]: 12.7 µM | GI50 [21]: 1320 nM | TGI [21]: > 100000 nM | GI50 [22]: 2360 nM | TGI [22]: 27.8 µM | GI50 [23]: 4890 nM | TGI [23]: 21.6 µM | GI50 [24]: < 10 nM | TGI [24]: 18.6 µM | GI50 [25]: 11.4 µM | TGI [25]: 32 µM | GI50 [51]: 833 nM | TGI [51]: 14.4 µM | GI50 [52]: 2180 nM | TGI [52]: 12 µM | GI50 [27]: < 10 nM | TGI [27]: 362 nM | GI50 [53]: 18.6 µM | TGI [53]: 33.7 µM | GI50 [54]: 1340 nM | TGI [54]: 37.9 µM | GI50 [28]: 17.5 nM | TGI [28]: 735 nM | GI50 [55]: < 10 nM | TGI [55]: 39.8 nM | GI50 [29]: 59.8 nM | TGI [29]: 43.7 µM | GI50 [56]: 30.3 nM | TGI [56]: 332 nM | GI50 [57]: 5.91 µM | TGI [57]: 21.2 µM | GI50 [30]: 11.7 µM | TGI [30]: 26.2 µM | GI50 [31]: 1840 nM | TGI [31]: 11.4 µM | GI50 [32]: 10.3 µM | TGI [32]: 24.5 µM | GI50 [33]: < 10 nM | TGI [33]: 10.7 nM | GI50 [58]: 16.3 µM | TGI [58]: 54.9 µM | GI50 [34]: 7.72 µM | TGI [34]: 29.2 µM | GI50 [35]: 379 nM | TGI [35]: 15 µM | GI50 [36]: 12.4 µM | TGI [36]: 34.1 µM | GI50 [37]: 172 nM | TGI [37]: 2.58 µM | GI50 [38]: 513 nM | TGI [38]: 3740 nM | GI50 [39]: 28.3 nM | TGI [39]: 116 nM | GI50 [59]: 12.7 µM | TGI [59]: 26 µM | GI50 [41]: 770 nM | TGI [41]: 9.29 µM | GI50 [42]: 464 nM | TGI [42]: 2720 nM | GI50 [43]: 11.1 µM | TGI [43]: 24 µM | GI50 [44]: 2180 nM | TGI [44]: 8.62 µM | GI50 [60]: < 10 nM | TGI [60]: 245 nM
